The values that follow come from the PolyMetriX glass transition set.

The compound `*/C(Cl)=C(/*)CCCCCC` (repeat unit) gave a glass transition temperature of 150.00 °C.

In the case of `*CC#CC#CCOc1cccc(C(=O)OCCN(CCOC(=O)c2cccc(O*)c2)c2ccc(/N=N/c3ccc(C#N)cc3)cc2)c1` (repeat unit), the glass transition temperature was found to be 50.00 °C.

Regarding `*CC(=O)NCCCCCCNC(=O)COC(=O)CCC(=O)O*` (repeat unit), the glass transition temperature amounted to 30.00 °C.

As for `*CC(=O)NCCCCCCNC(=O)COC(=O)CCCCC(=O)O*` (repeat unit), the glass transition temperature turned out to be 19.00 °C.

With `*CC(=O)NCCCCCCNC(=O)COC(=O)CCCCCCC(=O)O*` (repeat unit), the glass transition temperature was 8.00 °C.

As to `*CC(=O)Nc1ccc(NC(=O)CN2C(=O)c3ccc(C(=O)c4ccc5c(c4)C(=O)N(*)C5=O)cc3C2=O)cc1` (repeat unit), the glass transition temperature turned out to be 250.00 °C.

`*CC(=O)Nc1ccc(Oc2c(F)c(F)c(Oc3ccc(NC(=O)c4ccc5c(c4)C(=O)N(*)C5=O)cc3)c(F)c2F)cc1` (repeat unit) gave a glass transition temperature of 254.00 °C.

The compound `*CC(=O)Nc1ccc(Oc2ccc(Oc3ccc(NC(=O)CN4C(=O)c5ccc(C(c6ccc7c(c6)C(=O)N(*)C7=O)(C(F)(F)F)C(F)(F)F)cc5C4=O)cc3)cc2)cc1` (repeat unit) showed a glass transition temperature of 242.00 °C.

In turn, `*CC(=O)Nc1ccc(Oc2ccc(S(=O)(=O)c3ccc(Oc4ccc(NC(=O)CN5C(=O)c6ccc(C(c7ccc8c(c7)C(=O)N(*)C8=O)(C(F)(F)F)C(F)(F)F)cc6C5=O)cc4)cc3)cc2)cc1` (repeat unit) yielded a glass transition temperature of 241.00 °C.

For the compound `*CC(C)(CC)C(=O)O*` (repeat unit), the glass transition temperature is -9.00 °C.

Regarding `*CC(C)CNC(=O)O*` (repeat unit), the glass transition temperature stood at 40.00 °C.

`*CC(O)CN(*)c1ccccc1` (repeat unit): the glass transition temperature is 78.50 °C.

As to `*CC1CC(CNC(=O)c2cccc(C(=O)N*)c2)CC(C(C)(C)C)C1` (repeat unit), the glass transition temperature worked out at 209.00 °C.

In the case of `*CCC(=O)Nc1ccc(NC(=O)CCN2C(=O)c3ccc(C(=O)c4ccc5c(c4)C(=O)N(*)C5=O)cc3C2=O)cc1` (repeat unit), the glass transition temperature was 237.00 °C.

As for `*CCC(=O)Nc1ccc(Oc2ccc(NC(=O)CCN3C(=O)c4ccc(C(=O)c5ccc6c(c5)C(=O)N(*)C6=O)cc4C3=O)cc2)cc1` (repeat unit), the glass transition temperature was found to be 232.00 °C.

Take `*CCC(C)C(C)CCNC(=O)c1cc(C(=O)N*)cc(C(C)(C)C)c1` (repeat unit): the glass transition temperature turned out to be 173.00 °C.

As to `*CCC(C)O[Si](C)(C)O*` (repeat unit), the glass transition temperature is -88.00 °C.

Consider `*CCC(C)S*` (repeat unit), for which the glass transition temperature is -59.00 °C.

For `*CCC(CC)CC(C)CNC(=O)c1ccc(C(=O)N*)cc1` (repeat unit), the glass transition temperature was 139.00 °C.

`*CCCCCCCCCCCCCCNC(=O)CCc1ccc(CCC(=O)N*)cc1` (repeat unit) came in with a glass transition temperature of 85.00 °C.

Regarding `*CCCCCCCCCCCCNC(=O)CCc1ccc(CCC(=O)N*)cc1` (repeat unit), the glass transition temperature was found to be 85.00 °C.

For `*CCCCOC(=O)CCSCCCCCCSCCC(=O)O*` (repeat unit), the glass transition temperature is -73.00 °C.

Regarding `*CCCCSSCCCCO*` (repeat unit), the glass transition temperature is -76.00 °C.

Compound `*CCCCSSCCCCOCO*` (repeat unit) had a glass transition temperature of -76.00 °C.

Regarding `*CCCNC(=O)CNC(=O)C(Cc1ccccc1)NC(=O)CCCCCCCCC(=O)NC(Cc1ccccc1)C(=O)NCC(=O)NCCCOCCOCCO*` (repeat unit), the glass transition temperature came out at 36.00 °C.

Regarding `*CCN(*)C(=O)c1cc(F)c(F)c(F)c1` (repeat unit), the glass transition temperature was 65.00 °C.

`*CCN(*)C(=O)c1cc(F)cc(F)c1F` (repeat unit) came in with a glass transition temperature of 110.00 °C.

For `*CCN(*)C(=O)c1ccc(F)c(F)c1F` (repeat unit), the glass transition temperature amounted to 102.00 °C.

As for `*CCN(*)C(=O)c1ccc(F)cc1F` (repeat unit), the glass transition temperature was found to be 108.00 °C.

`*CCN(*)C(=O)c1cccc(F)c1F` (repeat unit): the glass transition temperature was determined as 110.00 °C.

As to `*CCN(*)C(=O)c1ccccc1` (repeat unit), the glass transition temperature was determined as 111.00 °C.

The compound `*CCN(CCN1C(=O)c2ccc(C(c3ccc4c(c3)C(=O)N(*)C4=O)(C(F)(F)F)C(F)(F)F)cc2C1=O)c1ccc(/N=N/c2ccc(C#N)cc2)cc1` (repeat unit) showed a glass transition temperature of 213.00 °C.

The compound `*CCN(CCN1C(=O)c2ccc(C(c3ccc4c(c3)C(=O)N(*)C4=O)(C(F)(F)F)C(F)(F)F)cc2C1=O)c1ccc(/N=N/c2ccc(C=O)cc2)cc1` (repeat unit) yielded a glass transition temperature of 170.00 °C.

`*CCN(CCOC(=O)CCC#CC#CCCC(=O)O*)c1ccc(/N=N/c2c(C)cc(/N=N/c3ccc(C#N)cc3)cc2C)cc1` (repeat unit) displayed a glass transition temperature of 63.00 °C.

Consider `*CCN(CCOC(=O)NCC1(C)CC(NC(=O)O*)CC(C)(C)C1)c1ccc(/N=N/c2ccc(B(c3c(C)cc(C)cc3C)c3c(C)cc(C)cc3C)cc2)cc1` (repeat unit), for which the glass transition temperature stood at 146.00 °C.

Consider `*CCN(CCOC(=O)c1ccc(C(=O)O*)cc1)c1ccc(/N=N/c2ccc(-c3nc4ccc([N+](=O)[O-])cc4n3CC)cc2)cc1` (repeat unit), for which the glass transition temperature came out at 149.00 °C.

`*CCOCCOC(=O)CCSCCC(=O)O*` (repeat unit) yielded a glass transition temperature of -33.00 °C.

`*CCOCCOCCOCCOC(=O)CCSCCC(=O)O*` (repeat unit) showed a glass transition temperature of -38.00 °C.

In turn, `*CC[Si](C)(C)O[Si]1(*)O[Si](C)(C)O[Si](C)(C)O1` (repeat unit) showed a glass transition temperature of -64.00 °C.

`*CCc1cc(C)c(*)cc1C` (repeat unit) yielded a glass transition temperature of 100.00 °C.

Compound `*CCc1cc(Cl)c(*)c(Cl)c1` (repeat unit) returned a glass transition temperature of 110.00 °C.

`*CCc1ccc(*)o1` (repeat unit) showed a glass transition temperature of 25.50 °C.

Compound `*CCc1ccc(*)s1` (repeat unit) registered a glass transition temperature of 26.00 °C.

As to `*CN1C(=O)c2ccc(C(c3ccc4c(c3)C(=O)N(Cc3nc5ccc(Cc6ccc7nc(*)oc(=O)c7c6)cc5c(=O)o3)C4=O)(C(F)(F)F)C(F)(F)F)cc2C1=O` (repeat unit), the glass transition temperature came to 218.00 °C.

As for `*Cc1cc(C)c(CNC(=O)c2ccc(C(=O)N*)cc2)cc1C` (repeat unit), the glass transition temperature stood at 225.00 °C.

On to `*Cc1cc(C23CC4CC(CC(C4)C2)C3)cc(CN(*)c2ccccc2)c1O` (repeat unit), for which the glass transition temperature turned out to be 109.40 °C.

Compound `*Cc1cc(CNC(=O)c2cccc(C(=O)N*)c2)cc(C(C)(C)C)c1` (repeat unit) came in with a glass transition temperature of 188.00 °C.

Consider `*OC(C)CCOC(=O)C(CCCCCCOc1ccc(/N=C/c2ccc([N+](=O)[O-])cc2)cc1)C(*)=O` (repeat unit), for which the glass transition temperature is 3.00 °C.

`*OC(C)CCOC(=O)c1ccc(-c2ccc(C(*)=O)cc2)cc1` (repeat unit) yielded a glass transition temperature of 92.50 °C.

In turn, `*OC(C)COC(=O)/C=C/C(*)=O` (repeat unit) gave a glass transition temperature of -14.00 °C.

Regarding `*O[Si](C)(C)CC[Si](*)(C)C` (repeat unit), the glass transition temperature is -88.00 °C.

For the compound `*O[Si](C)(C)COC(=O)CCCCCCCCC(=O)Oc1ccc(S(=O)(=O)c2ccc(Oc3ccc(/C=C4\CC/C(=C\c5ccc(Oc6ccc(S(=O)(=O)c7ccc(OC(=O)CCCCCCCCC(=O)OC[Si](*)(C)C)cc7)cc6)cc5)C4=O)cc3)cc2)cc1` (repeat unit), the glass transition temperature amounted to 73.00 °C.

As to `*O[Si](C)(C)COC(=O)CCCCCCCCC(=O)Oc1ccc(S(=O)(=O)c2ccc(Oc3ccc(/C=C4\CCCC/C(=C\c5ccc(Oc6ccc(S(=O)(=O)c7ccc(OC(=O)CCCCCCCCC(=O)OC[Si](*)(C)C)cc7)cc6)cc5)C4=O)cc3)cc2)cc1` (repeat unit), the glass transition temperature is 81.00 °C.

`*Oc1ccc(C(C)(C)c2ccc(OC(=O)OCCN(CCOC(*)=O)c3ccc(OC)cc3)cc2)cc1` (repeat unit) showed a glass transition temperature of 60.00 °C.

`*Oc1ccc(CC(NC(=O)CCc2ccc(OC(=O)CCC(*)=O)cc2)C(=O)OCc2ccccc2)cc1` (repeat unit) displayed a glass transition temperature of 78.00 °C.

In the case of `*Oc1ccc(CC(NC(=O)CCc2ccc(OC(=O)CCCCCCCCC(*)=O)cc2)C(=O)OCc2ccccc2)cc1` (repeat unit), the glass transition temperature amounted to 42.00 °C.

Consider `*Oc1ccc(NC(=O)c2cc(C(=O)Nc3ccc(*)cc3)c(C(=O)O)cc2C(=O)O)cc1` (repeat unit), for which the glass transition temperature was found to be 207.40 °C.

Turning to `*Oc1ccc(NC(=O)c2cc(NC(=O)CCCN3C(=O)c4ccccc4C3=O)cc(C(=O)Nc3ccc(*)cc3)c2)cc1` (repeat unit), the glass transition temperature is 225.00 °C.

For the compound `*Oc1ccc(Oc2ccc(NC(=O)c3cc(C(=O)Nc4ccc(*)cc4)cc(C(C)(C)C)c3)cc2)cc1` (repeat unit), the glass transition temperature turned out to be 195.50 °C.

Turning to `*Oc1ccc(Oc2ccc(Oc3ccc(NC(=O)c4cc(C(=O)Nc5ccc(*)cc5)cc(C(C)(C)C)c4)cc3)cc2)cc1` (repeat unit), the glass transition temperature amounted to 230.00 °C.

Regarding `*Sc1ccc(C(=O)CNCCCCCCCCNCC(=O)c2ccc(*)cc2)cc1` (repeat unit), the glass transition temperature was found to be 231.00 °C.

In turn, `*c1ccc(NC(=O)CN2C(=O)c3ccc(C(c4ccc5c(c4)C(=O)N(CC(=O)Nc4ccc(-c6nnc(*)o6)cc4)C5=O)(C(F)(F)F)C(F)(F)F)cc3C2=O)cc1` (repeat unit) yielded a glass transition temperature of 280.00 °C.

For `*c1ccc(Oc2ccc(-c3nc4cc(Oc5ccc(NC(=O)CN6C(=O)c7ccc(C(c8ccc9c(c8)C(=O)N(CC(=O)Nc8ccc(Oc%10ccc%11nc(-c%12ccccc%12)c(*)nc%11c%10)cc8)C9=O)(C(F)(F)F)C(F)(F)F)cc7C6=O)cc5)ccc4nc3-c3ccccc3)cc2)cc1` (repeat unit), the glass transition temperature was 260.00 °C.

With `*c1ccc2c(c1)C(=O)N(c1ccc(OCCN(CCOc3ccc(N4C(=O)c5ccc(C(*)(C(F)(F)F)C(F)(F)F)cc5C4=O)cc3)c3ccc(C(C#N)=C(C#N)C#N)cc3)cc1)C2=O` (repeat unit), the glass transition temperature turned out to be 218.00 °C.
